Results published in patent publication US20060025449A1, “Use of N-substituted imino sugars for appetite suppression” (priority 2004, published 2006).
“Also recorded” adds a separate entry of the source.

Legend:
[1] = test system: C57B1/6 mice; assay: Effect of imino sugars admixed with diet on growth of normal control mice; type: in vivo, mouse; conditions: 2400 mg/kg/day in diet
Experimental: Control C57B1/6 and C57BL/6O1aHsd-Lep ob mice were obtained from Harlan, UK at five weeks of age. The mice were housed under standard non-sterile conditions and fed a diet of mouse chow pelleted or expanded ground RM1 diet (SDS Ltd, Witham, Essex) with water available ad libitum. For dietary treatment of the mice with NB-DNJ or NB-DGJ, the diet and compound were admixed thoroughly as dry solids, stored at room temperature and used within 7 days. Unless indicated otherwise, mice were treated with a dose of 2400 mg/kg body weight per day, assuming an intake of around 5 g diet/day. Mice were maintained on diet with or without compound for up to six months of age and were weighed at regular intervals during the course of the experiment (see figure legends for group sizes and further experimental details). To study the effect of compound on obese mice, three groups (n=5) of ob/ob mice were monitored from five weeks of age. One group acted as control and were fed ground RM1 diet. At 6 weeks of age, the second group was started on NB-DNJ in the diet, whilst the third group started drug treatment at 12 weeks of age. All mice were then monitored for up to six months of age. […] In the first week of treatment, mice with NB-DNJ in their diet lost about 10% of their total body mass. Over the course of the following weeks, their weight stabilises. By 5 weeks of treatment they weighed 25% less than the controls. They then started to gain weight. However, after 10 weeks they remained 20% less in mass when compared with the age and sex-matched control group.

[2] = test system: lean control mouse; assay: Single intracerebroventricular (ICV) injection, food intake and weight change after 24 hours; type: in vivo; conditions: 2 nmol ICV, 24 hours
Experimental: To investigate a central anorexigenic mechanism for weight loss in mice treated with NB-DNJ, single intracerebro-ventricular (ICV) injections were performed. The mice were assessed for food intake and weight change. Mice were anesthetized with isofluorane (4%) delivered by a vaporiser. Upon achievement of a surgical plane of anaesthesia, the animal was transferred to and secured in a Kopf small animal ultra precise stereotaxic instrument (David Kopf Instruments, Tujunga, Calif., USA) fitted with rat ear bars, mouse adaptor and mouse anaesthesia mask. A small amount of lignocaine local anaesthetic gel was applied to the ear bars to reduce any post-operative discomfort. For the remainder of the procedure, anaesthesia was maintained with 2.5% isofluorane. Lacrilube (Allergan Ltd, High Wycombe, UK) was applied to the mouse's eyes and a subcutaneous injection of the non-steroidal anti-inflammatory drug, Rimadyl (Pfizer, Sandwich, Kent, UK) was given for post-operative analgesia. For ICV injections, a small scalpel incision was made along the midline of the scalp from above the eyes to the occiput. A small hole was drilled in the skull, 1 mm lateral and 0.34 mm posterior to Bregma. 1 μl solution was slowly infused into the lateral ventricle at a depth of 2.25 mm, via a glass needle pipette pulled to a thickness of less than 100 microns at the tip. Mice were injected with 2 nmol compound (NB-DNJ, NB-DGJ or 2-deoxy glucose) in isotonic saline vehicle which was injected into controls. The incision was then closed using VetBond acrylic suture fluid (3M Animal Care Products, St Paul, Minn., USA). The whole procedure from induction of anaesthesia to full recovery lasted less than seven minutes. Mice were allowed free access to a pre-weighed quantity of RM1 pellet diet with water provided ad libitum. 24 hours following ICV injection the mice and remaining diet were weighed. To confirm a central anorectic effect of NB-DNJ, 2 nmol NB-DNJ, NB-DGJ and 2 deoxyglucose were injected directly into the lateral cerebral ventricle of lean control mouse brain (approximately 100 μM final cerebro-ventricular concentration). Mice injected with both saline vehicle and NB-DGJ ate a normal quantity of pellet diet in the following 24 hours (FIG. 9), approximately 5% less in this experiment than that seen in control mice in FIG. 7 (not statistically significant). In contrast, NB-DNJ-injected mice ate 20% less (p<0.02 for both saline and NB-DGJ) and 2-deoxy-glucose injections caused a 10% increase in feeding. 2-deoxy-glucose is a mild appetite stimulant in the short-term. Tsutsui et al., Physiol Behav 31, 493-502. In contrast, NB-DGJ had no effect, as expected.

[3] = test system: control lean mice; assay: ICV mini-pump implants, long-term intracerebro-ventricular delivery; type: in vivo, mouse; conditions: ICV mini-pump 500 mM, first 24 hours
Experimental: FIG. 11. Control lean mice (n=5 in each group) had icv minipumps (50 mM imino sugar) implanted. Body weight was the monitored at regular intervals over three weeks. See example 7 for further experimental details. The effect of long-term intracerebro-ventricular delivery of imino sugars was determined by the implantation of Alzet mini-osmotic pumps (model 2004, DURECT Corporation, CA, USA) together with the brain infusion kit II which features a high stability low profile cannula. The mini-pumps were loaded with 0.24 ml imino sugar or saline vehicle. The indwelling 28 gauge stainless steel cannula was cut to a length of 2.25 mm. Mice were anaesthetised as for the ICV injections and underwent similar surgical procedures throughout. After drilling a small hole in the cranium at the midline, 2 mm posterior to Bregma, the mini-pump was positioned subcutaneously in the animal's flank and the cannula was implanted. This position and depth ensured delivery to the third cerebral ventricle. The implant was secured to the cranium using VetBond acrylic suture fluid, which was also used to close the surgical wound. The whole procedure lasted less than 9 minutes and mice were fully conscious and recovered within three minutes. For concentration of imino sugar in mini-pumps see figure legends.

SMILES | effect on growth / body weight [1] | effect on food intake [2] | ate less than control mice of FIG. 7 ([2]; not statistically significant) | effect on dietary intake [3] | effect on weight change [3] | increase in feeding [2]
CCCCN1C[C@H](O)[C@@H](O)[C@@H](O)[C@H]1CO [NB-DGJ] | did not lose weight; also recorded: no discernible effect | no effect | approximately 5% | no statistically significant effect | no statistically significant effect | 
O=CC[C@@H](O)[C@H](O)[C@H](O)CO [2-deoxy-glucose, 2-deoxyglucose] |  |  |  |  |  | 10%
